Results reported in US20220326218A1, “COMPOSITION AND METHOD FOR INHIBITING BORC COMPLEX TO TREAT CANCERS WITH NF1 DEFICIENCY AND DYSREGULATED RAS SIGNALING” (THE TRUSTEES OF DARTMOUTH COLLEGE, priority 2019, published 2022).

Columns and labels:
[1] = system: erg6Δira2Δ yeast; assay: Yeast dose response curves, erg6Δira2Δ strain; format: cell-based, Saccharomyces cerevisiae; conditions: 30° C., 18 h, 100 μM to 0.039 μM, normalized to DMSO
Description: (§1) S. cerevisiae strains were plated at an OD600 of 0.05 in 96-well plates (Falcon) and treated with SC complete containing compound starting at 100 μM, followed by 2-fold serial dilutions to generate a 10-point range of concentrations normalized with DMSO; one row was treated with DMSO as a control. Yeast were incubated for 18 h. To process, the optical density was read using a Spectramax M2 (Molecular Devices) at a wavelength of 600 nm and normalized to DMSO. Each experiment was repeated 2-3 times with 4 technical replicates per experiment.
(§2) A high-throughput screen in Saccharomyces cerevisiae lacking a yeast homologue of NF1, IRA2 (ira2Δ) was developed and carried out to identify tool compounds that elicited synthetic lethality with NF1 loss (15). ira2Δ yeast have increased RAS-GTP, which results in increased MAPK and PKA signaling analogous to the pathways that are activated in NF1-deficient Schwann cells (17). […]
(§3) More than 5,100 structurally diverse compounds selected from and representative of a >340,000-compound library were screened. […] To determine whether Y102 was also effective in human tumor cells, the efficacy of Y102 was evaluated in two NF1-deficient human cancer cell line models of glioblastoma, U87-MG and U251-MG, and an NF1-deficient Neurofibromatosis type 1-associated MPNST cell line sNF96.2. […]

[2] = system: U87-MG cells; assay: Hoechst cell death viability assay, U87-MG; format: cell-based, human
Description: Cells were plated at 2,500 cells/well in 96-well plates and allowed to adhere overnight. Medium was removed and replaced with media containing compound starting at 100 μM, followed by 2-fold serial dilutions to generate a 10-point range of concentrations normalized with DMSO; one row was treated with DMSO as a control. Cells were incubated for the indicated timepoints. Upon collection, media was removed, cells were rinsed with PBS, and stored at −80° C. until all plates were collected. To process cells, plates were thawed with PBS, incubated with 1× saline-sodium citrate (SSC) buffer with 0.02% sodium dodecyl sulfate (SDS) for 1 hour at 37° C., followed by staining with 1 μg/mL Hoechst 33258 (Pierce). […] using a Spectramax M2 at an excitation of 355 nm and an emission of 460 nm, and absorbance was normalized to DMSO. Each experiment was repeated 2-3 times with 4 technical replicates per experiment.

[3] = system: p21; assay: Immunofluorescence of p21 expression and nucleus size; format: cell-based, human; conditions: U87-MG, 2 μM, 24 h
Description: (§4) U87-MG cells were plated at a concentration of 50,000 cells/well onto precoated poly-D-lysine (PDL) coverslips (Neuvitro) in 24-well plates (Falcon) and allowed to adhere overnight. Medium was removed and replaced with treatment-laced media normalized to DMSO, and cells were treated for the indicated timepoints. At the time of collection, cells were washed with PBS and fixed with 4% paraformaldehyde without methanol (EMS) or 100% methanol (Fischer). Coverslips were washed with Tween20-containing PBS (PBST; Fischer). Following permeabilization with 0.5% Triton X-100 in PBS (Fischer), coverslips were blocked for 1 h at room temperature in IF Buffer (0.05% azide, 0.2% Triton X-100, 2% Normal Goat Serum or, for 8-OHG, Normal Donkey Serum). The following primary antibodies were used for 1 hour at room temperature unless specified: AlexaFluor 488 pre-conjugated anti-γ-H2AX (N1-431) mouse monoclonal (30 minutes; BD Biosciences), anti-cleaved caspase 3 (Asp175) rabbit polyclonal (Cell Signaling), anti-SQSTM1/p62 (D-3) mouse monoclonal (Santa Cruz), anti-8-Hydroxyguanosine goat polyclonal (1:200; Millipore), anti-LAMP1 (D4O1S) mouse monoclonal (O/N at 4° C.; Cell Signaling), anti-BNIP3L/Nix (D4R4B) rabbit monoclonal (O/N at 4° C.; Cell Signaling), anti-FLAG (M2) mouse monoclonal (2 hours at 37° C.; Sigma-Aldrich). […]

[4] = system: U87-MG cells; assay: Flow cytometry cell cycle distribution (DNA content); format: cell-based, human; conditions: 2 μM, 24 h
Description: U87-MG cells were plated at 500,000 cells/well in a 6-well plate and allowed to adhere overnight. The medium was replaced with cell culture media containing DMSO, 2 μM Y102, 100 nM Doxorubicin, or 100 μM CoCl2 for 24 hours. At the end of the incubation, cells were rinsed twice with PBS, trypsinized, and rinsed again with PBS prior to fixation with BD cytofix/cytoperm for 30 minutes on ice. After washing with BD perm/wash twice, cells were stained with DAPI at a final concentration 0.33 μg/mL in PBS for 30 minutes on ice. Cells were washed twice more with BD perm/wash, and resuspended in PBS for analysis. The cells were transferred to flow cytometry tubes (14-961-10, Fisherbrand) and analyzed using a MacsQuant VYB 8-color flow cytometer. DNA content was detected using the V1 channel. This experiment was repeated twice, and the percentage of cells in each cell cycle stage is shown. 50,000 events per sample were collected and cellular debris was gated out of the dataset.

[5] = system: γ-H2AX; assay: Immunofluorescence staining for DNA damage marker γ-H2AX; format: cell-based, human; conditions: U87-MG, 2 μM, 24 h
Description: as §4

[6] = system: erg6Δ yeast; assay: Yeast dose response curves, control strains; format: cell-based, Saccharomyces cerevisiae; conditions: 30° C., 18 h, normalized to DMSO
Description: as §1, §2, §3

[7] = system: U251-MG cells; assay: alamarBlue assay, U251-MG; format: cell-based, human; conditions: up to 3 days, 20 μM to 0.039 μM
Description: Cells were plated at 5,000 cells/well in 96-well plates and allowed to adhere overnight. […] Cells were incubated for 72 h. 3 h prior to end of incubation, alamarBlue (Invitrogen) was added to a final concentration of 5% v/v. Fluorescence was read using a Spectramax M2 at an excitation of 544 nm and an emission of 590 nm, and fluorescence was normalized to DMSO. Each experiment contains 4 technical replicates.

Compound: Cn1cnnc1S/C=C/C(=O)c1ccc(F)cc1 [Y102]
- effect on growth of erg6Δira2Δ yeast (OD600) [1]: inhibitory effect
- growth inhibition, acute treatment of 2 hours compared to continuous treatment for 72 hours [2]: same degree of growth inhibition
- reversibility of effects after a 2 hour treatment [2]: irreversible
- concentration from which cell proliferation was inhibited ([2]; continuous treatment, seven days, normalized to day zero plating): ≥ 3.125 µM
- sensitivity of NF1-deficient cell line to treatment ([2]; up to 7 days, 100 μM to 0.039 μM, Hoechst 33258): sensitive
- nucleus size [3]: increase
- p21 expression [3]: increase
- cell cycle arrest (cell cycle distribution by DNA content) [4]: no indication
- change in γ-H2AX expression [5]: no significant change
- effect on growth of control strains at concentrations inhibitory to erg6Δira2Δ yeast [6]: no effect
- sensitivity of NF1-deficient cell line to treatment [7]: sensitive
